In patent US11008334B2, “Compositions and methods for treating cancer” (The Regents of the University of California, priority 2012, dated 2021):
Where two headings read alike, the source gives them in different places.

Biological target: T1, K-RasG12C (1-169) (Homo sapiens, UniProt P01116, G12C)
T1 construct: Un-tagged recombinant K-Ras G12C (1-169) at 4 μM in Buffer A; hexahistidine (cleaved yes); made in house; host or cells: Escherichia coli BL21 (DE)
Assay: Mass spectrometric screen for extent of covalent labeling
Type: binding
Settings: for percent covalent labeling at 10 µM: 10 micromolar; for Labeling % (10 micM) 24h: 10 micM compound, (plate) or (single) measurement
Experimental: Un-tagged recombinant K-Ras G12C (1-169) at 4 μM in Buffer A was reacted with inhibitors at 200 μM or 10 μM (2% DMSO final). At 2, 6, and 24 hrs, 10 μL aliquots were removed and the reactions were stopped by addition of 1 μL 2% formic acid. The extent of modification was determined by mass spectrometry.

[1] = 2 h, 2 hrs, read-out: Percent reduction in activity of compound at 10 micromolar relative to control (no compound), 2 hrs
[2] = 6 h, 6 hrs, read-out: Percent reduction in activity of compound at 10 micromolar relative to control (no compound), 6 hrs
[3] = 24 h, 24 hrs, read-out: Percent reduction in activity of compound at 10 micromolar relative to control (no compound), 24 hrs

percent covalent labeling at 10 µM [1] [%]	percent covalent labeling at 10 µM [2] [%]	percent covalent labeling at 10 µM [3] [%]	Labeling % (10 micM) 24h	Labeling % (10 micM) 24h (Table 5)	SMILES
≤ 5	20 to 40	> 60	–	–	C=CS(=O)(=O)NC1CCN(C(=O)CNc2cc(Cl)c(Cl)cc2OC)CC1 [Ras-054]
5 to 20	20 to 40	> 60	+++++ (plate) (60% < +++++)	+++++ (plate) (60% < +++++)	C=CS(=O)(=O)NC1CCN(C(=O)CNc2cc(Cl)c(Cl)cc2O)CC1 [Ras-055]
≤ 5	5 to 20	> 60	+++++ (single) (60% < +++++)	+++++ (single) (60% < +++++)	C=CS(=O)(=O)NC1CCN(C(=O)CNc2cc(Cl)c(Cl)cc2CC)CC1 [Ras-059]
≤ 5	≤ 5	≤ 5	–	–	C=CS(=O)(=O)NC1CCN(C(=O)COc2cc(NS(C)(=O)=O)c(Cl)cc2Cl)CC1 [Ras-061]
≤ 5	5 to 20	20 to 40	–	–	C=CS(=O)(=O)NC1CCN(C(=O)COc2cc(Cl)c(Cl)cc2O)CC1 [Ras-063]
≤ 5	≤ 5	20 to 40	–	–	C=CS(=O)(=O)NC1CCN(C(=O)CNc2cc(OC)c(Cl)cc2OC)CC1 [Ras-064]
≤ 5	5 to 20	20 to 40	–	–	C=CS(=O)(=O)NC1CCN(C(=O)CNc2cc(C(F)(F)F)c(Cl)cc2OC)CC1 [Ras-065]
≤ 5	≤ 5	≤ 5	–	–	C=CS(=O)(=O)NC1CCN(CC(=O)Nc2cc(Cl)c(Cl)cc2I)CC1 [Ras-068]
≤ 5	≤ 5	20 to 40	–	–	C=CS(=O)(=O)NC1CCN(C(=O)COc2cc(CCO)c(Cl)cc2Cl)CC1 [Ras-070]

Continued, compound first:

SMILES	percent covalent labeling at 10 µM [1] [%]	percent covalent labeling at 10 µM [2] [%]	percent covalent labeling at 10 µM [3] [%]	Labeling % (10 micM) 24h	Labeling % (10 micM) 24h (Table 5)
C=CS(=O)(=O)NC1CCN(C(=O)COc2cc(-c3cn[nH]c3)c(Cl)cc2Cl)CC1 [Ras-056]	≤ 5	≤ 5	≤ 5	–	–
C=CS(=O)(=O)NC1CCN(C(=O)C(C)Oc2cc(CN)c(Cl)cc2Cl)CC1 (stereo not shown) [Ras-058]	≤ 5	≤ 5	≤ 5	–	–
C=CS(=O)(=O)NC1CCN(c2cc(-c3cc(Cl)c(Cl)cc3I)ccn2)CC1 [Ras-060]	≤ 5	≤ 5	≤ 5	–	–
C=CC(=O)N1CCN(C(=O)CNc2cc(Cl)c(Cl)cc2OC)CC1 [Ras-062]	≤ 5	≤ 5	20 to 40	+++ (single) (20%< +++ <=40%)	+++ (single) (20%< +++ <=40%)
C=CC(=O)N1CCN(C(=O)CNc2cc(C(F)(F)F)c(Cl)cc2OC)CC1 [Ras-066]	≤ 5	≤ 5	5 to 20	–	–
C=CS(=O)(=O)NC1CCN(C(=O)COc2ccc(Cl)cc2C(F)(F)F)CC1 [Ras-067]	≤ 5	≤ 5	5 to 20	–	–
C#CCOc1cc(OCC(=O)N2CCC(NS(=O)(=O)C=C)CC2)c(Cl)cc1Cl [Ras-069]	≤ 5	5 to 20	> 60	–	+++ (single) (20%< +++ <=40%)
C#Cc1cc(OCC(=O)N2CCC(NS(=O)(=O)C=C)CC2)c(Cl)cc1Cl [Ras-071]	≤ 5	≤ 5	40 to 60	–	–
C=CS(=O)(=O)N1CCC(Nc2cc(-c3cc(Cl)c(Cl)cc3I)ccn2)CC1 [Ras-072]	≤ 5	≤ 5	≤ 5	–	–
